Assay results from patent US10034862B2, “Solid pharmaceutical composition comprising amlodipine and losartan” (HANMI PHARM. CO., LTD., priority 2014, dated 2018).

What was measured:
[1] = Dissolution of losartan at different pH (gelation); format: physicochemical
Description: However, when the combined formulation of amlodipine and losartan was prepared, undesirable gelation of losartan was observed. […] As such, in the combined formulation of amlodipine and losartan, amlodipine may also be trapped in the losartan gel due to the gelation of losartan, resulting in a decrease in dissolution rate.

[2] = cited from earlier work

dissolution of losartan (in words) ([1]; low pH (e.g., pH 1.2 or 2.0), gelation): very slowly dissolved
dissolution of losartan (in words) ([1]; purified water or relatively high pH (e.g., pH 6.8)): easily dissolved
SMILES: CCCCc1nc(Cl)c(CO)n1Cc1ccc(-c2ccccc2-c2nnn[nH]2)cc1 [losartan, 2-butyl-4-chloro-1-[[2′-(1H-tetrazol-5-yl)[1,1′-biphenyl]-4-yl]methyl]-1H-imidazol-5-methanol]
reduction of Cmax of losartan after food ingestion [2]: about 10%
